The values below come from US9872859B2, “Materials and methods for targeting therapeutic compositions to gut-associated lymphoid tissue (GALT)” (THE FLORIDA INTERNATIONAL UNIVERSITY BOARD OF TRUSTEES, priority 2016, dated 2018).

Molecules are shown by their SMILES.

The subject of one assay is HIV-1 1Ba-L. Description: Anti-HIV activity in HIV-infected primary human macrophages (p24 ELISA). The class given is cell-based. The note with it: 70 ug/ml. The text has this: The nanodrug was further investigated for anti-HIV activity in primary human macrophage and M-cell culture model, respectively. Human peripheral blood mononuclear cells (PBMC) were isolated from healthy donor and differentiated to macrophages as per previously published protocol^23. Briefly, PBMC were isolated with Ficoll-Hypaque (Pharmacia) gradient and cells were allowed to differentiate for 7 days in the presence of human macrophage colony stimulating factor (MCSF, Sigma) to macrophages. Following 7 days of incubation, macrophages were infected with HIV-1 1Ba-L (NIH AIDS research and reference reagent program. Cat#510) (100 ng/ml) and incubated for 24 hrs. The next day, cells were thoroughly washed to get rid of any unattached virus particle and fresh media was added. At the same time, same concentration (70 ug/ml) of nanodrug and unformulated drug (EFV) were added to these cells separately. The HIV infected macrophages were served as control. The nanodrug/EFV drug treated cells were monitored for up to 10 days along with infected control cells. The cell supernatant was collected at day 0, 1, 3, 5, 7 and 10 days post treatment. The viral p24 level in the supernatant was measured with p24 ELISA assay (Cat. #0801200, Zeptometrix, USA). The minimum assay detection limit for p24 antigen by ELISA was 7.8 pg/ml as provided by the manufacturer. […]
(In an ELISA, binding on a coated surface is turned into a signal by an enzyme label.)

A further assay deals with HIV-1Ba-L. Briefly: Anti-HIV activity in in vitro M-cell culture model with HIV-infected Raji cells (p24 ELISA). The class given is cell-based. The note with it: 70 ug/ml; for HIV replication (p24 level in culture supernatant) over time: infected Raji cells. On the procedure:
The nanodrug was further investigated for anti-HIV activity in primary human macrophage and M-cell culture model, respectively. Simultaneously, a parallel anti-HIV activity study was set up in an in vitro model of M-cell. In this model, Raji cells were exposed with HIV-1Ba-L at the concentration of (100 ng/ml) for 24 hrs in a co-culture and then washed from unattached viral particles^24,25. Following that, same concentration (70 ug/ml) of nanodrug and EFV were added to M-cell culture model separately. […] The untreated Raji cells were kept as a control for all the experiments related to drug activity. In the M-cell culture model, infected Raji cells were also treated with EFV to compare with nanodrug. The effect of nanodrug on HIV replication was measured for up to 10 days post treatment in culture supernatant.

Regarding `O=C1Nc2ccc(Cl)cc2[C@@](C#CC2CC2)(C(F)(F)F)O1` [EFV, efavirenz], the “HIV replication (p24 level in culture supernatant) over time” value in the assay with HIV-1 1Ba-L (day 0-10 post treatment) is “immediate inhibition of viral replication on day 1 and following that there was increase of viral p24 level”; in the assay with HIV-1Ba-L (up to day 10), “immediate reduction of viral replication”; in the assay with HIV-1Ba-L (up to day 10, listed as free EFV), “immediate decrease in viral replication as expected; however, rebound of viral p24 level within day ten”. Also, the “p24 level at end of experiment” value with HIV-1 1Ba-L (day 10) is on record as “increased up to the level of untreated cells”. In addition, the “p24 level within day 10” value in the assay on HIV-1Ba-L (day 10) is listed as “increased closer to the level of untreated cells”.
